From patent US7423017B2, “Method for treating cartilage disorders” (Genentech, Inc., priority 1997, dated 2008)
One block for each compound: values may come before it. Positions of bridges follow the written chain, without caps; N, C: chain ends. Residues, ends and D or L forms follow the SMILES beside them.

Legend:
IGFBP-1 [1] = biological target: T1, IGFBP-1 (Homo sapiens, UniProt P08833); assay: BIACORE kinetics: IGFBP-1 binding to immobilized IGF-1 variants; set-up: made in house; host or cells: CHO cells; conditions: 25 C
T1 sequence (P08833 26-259): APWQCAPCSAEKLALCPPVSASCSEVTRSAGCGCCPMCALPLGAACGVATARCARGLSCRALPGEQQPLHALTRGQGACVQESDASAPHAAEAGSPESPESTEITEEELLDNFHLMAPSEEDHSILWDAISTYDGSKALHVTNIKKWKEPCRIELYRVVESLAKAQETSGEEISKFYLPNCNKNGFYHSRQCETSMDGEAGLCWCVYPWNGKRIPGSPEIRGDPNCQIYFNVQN
Protocol: (§1) The binding affinities of the IGF variants for IGFBP-1 and IGFBP-3 were determined using a BIACORE™-2000 real time kinetic interaction analysis system (Biacore, Inc., Piscataway, N.J.) to measure association (ka) and dissociation (kd) rates. Carboxymethylated dextran biosensor chips (CM5, BIAcore Inc.) were activated with EDC (N-ethyl-N′-(3-dimethylaminopropyl)-carbodiimide hydrochloride) and NHS(N-hydroxysuccinimide) according to the supplier's instructions. For immobilization, IGF mutants in 20 mM sodium acetate, pH 4.8, were injected onto the biosensor chip at a concentration of 50 μg/ml to yield approximately 450-600 RU's (resonance-responce units) of covalently-coupled protein. Unreacted groups were blocked with an injection of 1 M ethanolamine. Kinetic measurements were carried out by injecting two-fold serial dilutions (starting at 1 μM) of either IGFBP-1 or IGFBP-3 in running buffer (PBS, 0.05% TWEEN 20™, 0.1% ovalbumin, 0.1% sodium azide) at 25 °C using a flow rate of 20 μl/min. Association rates (ka) and dissociation rates (kd) were calculated separately using a 1:1 Langmuir™ association model in the BIACORE™ evaluation software v. 3.0. The equilibrium dissociation constant (KD) was calculated as kd/ka.
(§2) For measurements of IGFBP-1 binding to IGF-1, kinetics experiments were conducted using a single-cysteine IGF-1 variant, Y31C, that was immobilized onto the sensor chip surface via a disulfide linkage (BIACORE™ System Manual Supplement, 5a-1, Pharmacia (1991)).

IGFBP-3 [2] = biological target: T2, IGFBP-3 (Homo sapiens, UniProt P17936); assay: competitive phage ELISA of IGF-1 mutants, IGFBP-3; type: binding; conditions: phage display, soluble IGFBP-3 competitor
T2 construct: made in house
Outline: (§3)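 Alanine-scan IGF-1 mutants on phage competed with soluble IGFBP-1 or IGFBP-3 (threefold dilutions over six logs, from 5 μM and 500 nM respectively) for binding to plates coated with 1 μg/ml of the same protein in PBS pH 7.2. Incubation was 1 h at room temperature in 0.5% Tween 20/PBS. Bound phage was detected by anti-phage/HRP ELISA; IC50 is the mean±SD of at least two clones.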

type I IGF receptor = biological target: T3, type I IGF receptor (Homo sapiens, UniProt P08069); assay: KIRA assay of IGF type I receptor activation; type: cell-based; conditions: about 13 nM or […] variant
T3 construct: monitors the extent of cytoplasmic IGF receptor phosphorylation upon extracellular stimulation by ligand; endogenous in cells; MCF-7 by my knowledge of the cited method
Excerpt: The Kinase Receptor Activation Assay (KIRA) specifically and quantitatively monitors the extent of cytoplasmic IGF receptor phosphorylation upon extracellular stimulation by ligand (Sadick et al., J. Pharm. Biomed. Analysis, 19 (6): 883-891 (1999)).

IGFBP-1 [3] = assay: BIACORE kinetics: IGFBP-1 binding to immobilized IGF-1 variants; set-up: species or system human; conditions: from relative KD values
Protocol: as §1, §2

IGFBP-1 [4] = assay: competitive phage ELISA of IGF-1 mutants, IGFBP-1; type: binding, human; conditions: relative IC50 IGFBP-1/relative IC50 IGFBP-3
Outline: as §3

IGFBP-3 [5] = biological target: T2, IGFBP-3; assay: BIACORE kinetics: IGFBP-3 binding to immobilized IGF-1 variants; conditions: 25 C
Protocol: as §1

IGFBP-1 [6] = biological target: T1, IGFBP-1; assay: competitive phage ELISA of IGF-1 mutants, IGFBP-1; type: binding; set-up: made in house; host or cells: CHO cells; conditions: phage display, soluble IGFBP-1 competitor
Outline: as §3

IGFBP-3 [7] = biological target: T2, IGFBP-3; assay: binding curves of phage displaying IGF-1 variants on immobilized IGFBP-1 or IGFBP-3
Excerpt: Phage particles displaying IGF-1 variants in which the aspartate residue at position 12 was mutated to lysine (D12K) or arginine (D12R) were constructed as described in Dubaquié and Lowman, supra. Furthermore, these protein variants were expressed in E. coli and purified as described in Dubaquié and Lowman, supra.
The wild-type IGF-1 phage particles bound to IGFBP-1 or IGFBP-3 generated similar detection signal intensities.

[8] = system: human articular cartilage explants; assay: human articular cartilage explants from diseased joints: matrix synthesis (35S-sulfate uptake); type: cell-based; conditions: for matrix synthesis in diseased human articular cartilage: 40 ng/ml
Protocol: (§4) The metacarpophalangeal joint of a six-month old pig was cultured as described above for bovine articular cartilage in Example 8. This explant was cultured in media alone or in media with D12K, D12R, or wild-type IGF-1 (at 10 nM) alone or in the presence of IL-1α at 1 ng/ml, as described above. Human explants were from patients undergoing joint replacement surgery. Articular cartilage was harvested, aliquoted (40-45 mg/tube) and cultured as above. […] Fresh media was added on days 0, 1, 2, and 3. Matrix breakdown was determined by measuring the amount of proteoglycans in the media using the DMMB assay as set forth above. Matrix (proteoglycan) synthesis was determined by measuring ^35S-sulfate uptake as set forth above.
(§5) Human articular cartilage explants were cultured in media or treated with IGF-1 by itself or in combination with either BP3-40 or BP3-15 at 0.1 mg/ml as set forth above. Matrix breakdown was determined by measuring the release of proteoglycans into media as described above. Matrix synthesis was determined by counting the amount of ^35S-sulfate incorporated into the cartilage tissue as described above.
The same Material and Methods (for human tissue) were used as described above, using articular cartilage explants from human joints removed from patients undergoing joint replacement. These explants were cultured with IGF-1 alone at 40 ng/ml, or IGF-1 with BP1-17, BP3-15, or BP1-16 (0.1 mg/ml), or IGF-1 with buffer (HEPES).

[9] = system: porcine articular cartilage explants; assay: porcine articular cartilage explants: matrix breakdown; type: cell-based, pig; conditions: 10 nM; for IL-1α-induced matrix breakdown: IL-1α 1 ng/ml
Protocol: as §4

[10] = system: porcine articular cartilage explants; assay: porcine articular cartilage explants: matrix synthesis; type: cell-based, pig; conditions: 10 nM; for IL-1α-induced inhibition of proteoglycan synthesis: IL-1α 1 ng/ml
Protocol: as §4

IGFBP-1 [11] = biological target: T1, IGFBP-1; assay: radiolabeled IGF-1 plate assay, IGFBP-1 plate; type: binding; set-up: made in house; host or cells: CHO cells
Protocol: (§6) As an additional assay of peptide activity, several peptides were tested in an assay using ^125I-labeled IGF-1 to measure inhibition of IGFBP binding, as described above (Assay 3). Serial dilutions of peptide were added to an IGFBP-1 or an IGFBP-3 plate. Thereafter, ^125I-labeled IGF-1 was added and the plates were incubated for 2 hours. The plates were then washed and counted to determine the amount of bound IGF-1.

IGFBP-3 [12] = biological target: T2, IGFBP-3; assay: radiolabeled IGF-1 plate assay, IGFBP-3 plate; type: binding
Protocol: as §6

IGFBP-3 [13] = biological target: T2, IGFBP-3; assay: BIACORE competition assay: IGFBP-3 binding to immobilized IGF-1
Protocol: IGF-1 was immobilized on a dextran chip for inhibition assays using a BIACORE™ 2000 surface-plasmon-resonance device (BIAcore, Inc., Piscataway, N.J.) to measure free binding protein. IGF-1 was biotinylated as described above, and injected over a chip to which streptavidin had been coupled (BIAcore, Inc.) to give 400 to 800 RU (response units) of immobilized IGF-1. […] Serial dilutions of peptide were mixed with a constant concentration (40 nM) of IGFBP-3. After incubation for >1 hour at room temperature, an aliquot of 20 μL was injected at a flow rate of 20 μL/min over the IGF-1 chip. Following the injection, a response reading was taken to measure the relative amount of IGFBP-3 bound to the IGF-1.

[14] = system: human articular cartilage explants; assay: human articular cartilage explants: matrix breakdown (proteoglycan release); type: cell-based; conditions: peptide 0.1 mg/ml
Protocol: as §4, §5

T2 sequence (P17936 28-291): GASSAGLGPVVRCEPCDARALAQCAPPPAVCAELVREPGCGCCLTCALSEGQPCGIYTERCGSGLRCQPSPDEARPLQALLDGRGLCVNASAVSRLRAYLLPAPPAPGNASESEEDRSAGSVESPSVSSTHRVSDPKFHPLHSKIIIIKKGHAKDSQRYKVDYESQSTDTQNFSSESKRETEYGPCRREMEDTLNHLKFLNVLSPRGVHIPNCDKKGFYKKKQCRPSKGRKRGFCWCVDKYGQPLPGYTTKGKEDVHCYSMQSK
T3 sequence (P08069 31-736 limits assumed): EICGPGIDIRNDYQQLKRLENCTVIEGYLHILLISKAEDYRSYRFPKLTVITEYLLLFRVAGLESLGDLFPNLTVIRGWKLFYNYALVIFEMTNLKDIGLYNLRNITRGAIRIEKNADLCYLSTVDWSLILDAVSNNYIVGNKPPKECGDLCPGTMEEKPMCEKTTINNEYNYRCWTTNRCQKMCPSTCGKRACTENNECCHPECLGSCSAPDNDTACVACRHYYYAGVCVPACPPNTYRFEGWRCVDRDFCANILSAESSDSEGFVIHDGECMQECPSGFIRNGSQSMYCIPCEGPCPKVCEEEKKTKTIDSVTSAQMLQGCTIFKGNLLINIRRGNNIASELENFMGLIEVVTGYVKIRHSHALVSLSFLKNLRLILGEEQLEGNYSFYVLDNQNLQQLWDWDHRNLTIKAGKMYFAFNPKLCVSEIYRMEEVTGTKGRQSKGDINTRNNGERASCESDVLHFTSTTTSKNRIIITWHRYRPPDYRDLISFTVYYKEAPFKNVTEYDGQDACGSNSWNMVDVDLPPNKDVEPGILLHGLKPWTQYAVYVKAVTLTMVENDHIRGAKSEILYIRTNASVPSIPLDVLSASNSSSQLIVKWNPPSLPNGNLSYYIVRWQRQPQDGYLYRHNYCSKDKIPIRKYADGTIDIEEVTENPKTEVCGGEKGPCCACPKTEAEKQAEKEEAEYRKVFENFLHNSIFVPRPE

Compound: F16A: IGF-1 single alanine mutant
Binding to IGFBP-1 ka (IGFBP-1 [1]): 1.9 ± 0.6 ×10^4 M^−1s^−1
IC50 (IGFBP-3 [2]): 1.32 ± 0.25 nM
IGF type I receptor activation, single-concentration KIRA (type I IGF receptor): retain biological activity
Specificity Relative BP-1 / Relative BP-3 (IGFBP-1 [3]): 3.6
relative specificity (IGFBP-1 [4]): 4.0
Binding to IGFBP-3 ka (IGFBP-3 [5]): 1.1 ± 0.4 ×10^5 M^−1s^−1
IC50 (IGFBP-1 [6]): 57.8 ± 20.1 nM

Compound: F25A: IGF-1 single alanine mutant
Binding to IGFBP-1 ka (IGFBP-1 [1]): 1.5 ± 0.5 ×10^4 M^−1s^−1
IC50 (IGFBP-3 [2]): 3.69 ± 0.25 nM
IGF type I receptor activation, single-concentration KIRA (type I IGF receptor): retain biological activity
Specificity Relative BP-1 / Relative BP-3 (IGFBP-1 [3]): 4.9
Binding to IGFBP-3 ka (IGFBP-3 [5]): 1.5 ± 0.5 ×10^5 M^−1s^−1
IC50 (IGFBP-1 [6]): 181 ± 46 nM

Compound: D12K: IGF-1 variant, aspartate at position 12 mutated to lysine
phage binding signal intensity, IGFBP-3 versus IGFBP-1 (IGFBP-3 [7]): displayed lower signal intensities when binding to IGFBP-3 compared to IGFBP-1
matrix synthesis in diseased human articular cartilage [8]: stimulated matrix synthesis in diseased human articular cartilage
cartilage matrix breakdown [9]: inhibited cartilage matrix breakdown
IL-1α-induced matrix breakdown [9]: inhibited the catabolic effects
matrix synthesis [10]: increased matrix synthesis
IL-1α-induced inhibition of proteoglycan synthesis [10]: prevented IL-1α-induced inhibition of proteoglycan synthesis

Compound: CC(=O)N[C@@H](CO)C(=O)N[C@@H](CCC(=O)O)C(=O)N[C@@H](CCC(=O)O)C(=O)N[C@H](C(=O)N[C@H]1CSSC[C@@H](C(=O)N[C@@H](CC(N)=O)C(N)=O)NC(=O)[C@H](CC(C)C)NC(=O)[C@H](Cc2ccc(O)cc2)NC(=O)[C@H](Cc2c[nH]c3ccccc23)NC(=O)[C@H](CCC(=O)O)NC(=O)[C@H](C)NC(=O)[C@H](C(C)C)NC(=O)[C@@H]2CCCN2C(=O)[C@H](Cc2c[nH]c3ccccc23)NC1=O)C(C)C [BP3-40] (Ac-SEEVCWPVAEWYLCN-NH2; disulfide 5-14)
matrix synthesis, IGF-1 in combination with peptide ([8]; IGF-1 40 ng/ml, peptide 0.1 mg/ml): to stimulate matrix synthesis
matrix breakdown, IGF-1 in combination with peptide [14]: appeared to enhance the ability of IGF-1 to decrease matrix breakdown

Compound: D12R: IGF-1 variant, aspartate at position 12 mutated to arginine
phage binding signal intensity, IGFBP-3 versus IGFBP-1 (IGFBP-3 [7]): displayed lower signal intensities when binding to IGFBP-3 compared to IGFBP-1
matrix synthesis in diseased human articular cartilage [8]: stimulated matrix synthesis in diseased human articular cartilage
cartilage matrix breakdown [9]: inhibited cartilage matrix breakdown
IL-1α-induced matrix breakdown [9]: inhibited the catabolic effects
matrix synthesis [10]: increased matrix synthesis
IL-1α-induced inhibition of proteoglycan synthesis [10]: prevented IL-1α-induced inhibition of proteoglycan synthesis

Second part, led by results:

inhibition of 125I-IGF-1 binding to an IGFBP-3 plate (IGFBP-3 [12]): inhibition
Compound: CSCC[C@@H]1NC(=O)[C@H](Cc2c[nH]c3ccccc23)NC(=O)[C@@H]2CCCN2C(=O)CNC(=O)[C@H](CC(=O)O)NC(=O)[C@H](C)NC(=O)[C@@H](NC(=O)[C@@H](NC(=O)CNC(=O)[C@H](CCSC)NC(=O)[C@@H](N)CC(=O)O)C(C)C)CSSC[C@@H](C(=O)N[C@@H](CCC(=O)O)C(=O)N[C@@H](Cc2c[nH]c3ccccc23)C(=O)N[C@H](C(=O)N[C@@H](CCC(=O)O)C(=O)O)[C@@H](C)O)NC(=O)[C@H](C(C)C)NC(=O)[C@H](Cc2ccc(O)cc2)NC1=O [BP3-02-ox] (H-DMGVCADGPWMYVCEWTE-OH; disulfide 5-14; N-terminus and C-terminus assumed)
inhibition of 125I-IGF-1 binding to an IGFBP-1 coated plate (IGFBP-1 [11]): did not inhibit IGF-1 binding to an IGFBP-1 coated plate

inhibition of 125I-IGF-1 binding to an IGFBP-3 plate (IGFBP-3 [12]): inhibition
IC50 (IGFBP-3 [13]): 2000 nM
Compound: CSCC[C@H](NC(=O)[C@H](CC(N)=O)NC(=O)[C@@H]1CSSC[C@H](NC(=O)[C@@H](NC(=O)[C@H](CCC(=O)O)NC(=O)[C@H](CCC(=O)O)NC(=O)[C@@H](N)CO)C(C)C)C(=O)N[C@@H](Cc2c[nH]c3ccccc23)C(=O)N2CCC[C@H]2C(=O)N[C@@H](C(C)C)C(=O)N[C@@H](C)C(=O)N[C@@H](CCC(=O)O)C(=O)N[C@@H](Cc2c[nH]c3ccccc23)C(=O)N[C@@H](Cc2ccc(O)cc2)C(=O)N[C@@H](CC(C)C)C(=O)N1)C(=O)N[C@@H](Cc1c[nH]c2ccccc12)C(=O)NCC(=O)O [BP3-01-ox] (H-SEEVCWPVAEWYLCNMWG-OH; disulfide 5-14; N-terminus and C-terminus assumed)
inhibition of 125I-IGF-1 binding to an IGFBP-1 coated plate (IGFBP-1 [11]): did not inhibit IGF-1 binding to an IGFBP-1 coated plate
